These molecules were tested against Platelet-activating factor receptor (Oryctolagus cuniculus) (assay: In vitro inhibitory activity against PAF receptor using [3H]PAF as radioligand in rabbit platelets).
Molecule `C=C1CCC2[C@@](C)(CO)CCC[C@]2(C)[C@H]1CCC1=CCOC1=O` (stereo partly drawn) [3-[2-((1S,5S,8aR)-5-Hydroxymethyl-5,8a-dimethyl-2-methylene-decahydro-naphthalen-1-yl)-ethyl]-5H-furan-2-one] has an IC50 of 30 µM.
With `C=C1CCC2[C@@](C)(COC)CCC[C@]2(C)[C@H]1CCC1=CCOC1=O` (stereo partly drawn) [3-[2-((1S,5S,8aR)-5-Methoxymethyl-5,8a-dimethyl-2-methylene-decahydro-naphthalen-1-yl)-ethyl]-5H-furan-2-one] the IC50 was 1.7 µM.
Molecule `C=C1CCC2[C@@](C)(CO)CCC[C@]2(C)[C@H]1CCC1=CC(=O)OC1` (stereo partly drawn) [4-[2-((1S,5S,8aR)-5-Hydroxymethyl-5,8a-dimethyl-2-methylene-decahydro-naphthalen-1-yl)-ethyl]-5H-furan-2-one] has an IC50 of 110 µM.
Molecule `COC(=O)[C@@]1(C)CCC[C@@]2(C)C1CCC(C)[C@@H]2CCC1CCOC1=O` (stereo partly drawn) [(1S,4aR,5S)-1,4a,6-Trimethyl-5-[2-(2-oxo-tetrahydro-furan-3-yl)-ethyl]-decahydro-naphthalene-1-carboxylic acid methyl ester] has an IC50 of 4.8 µM.
With `C=C1CCC2[C@](C)(CCC[C@]2(C)C(=O)OC)[C@H]1CCC1=CCOC1=O` (stereo partly drawn) [(1S,4aR,5S)-1,4a-Dimethyl-6-methylene-5-[2-(2-oxo-2,5-dihydro-furan-3-yl)-ethyl]-decahydro-naphthalene-1-carboxylic acid methyl ester] the IC50 was 0.25 µM.
`C=C1CCC2[C@](C)(CCC[C@]2(C)C(=O)OC)[C@H]1CCC1CCOC1=O` (stereo partly drawn) [(1S,4aR,5S)-1,4a-Dimethyl-6-methylene-5-[2-(2-oxo-tetrahydro-furan-3-yl)-ethyl]-decahydro-naphthalene-1-carboxylic acid methyl ester] was tested, and the IC50 was 2 µM.
`C=C1CCC2[C@](C)(CCC[C@]2(C)C(=O)OC)[C@H]1CCC1=CC(=O)OC1` (stereo partly drawn) [(1S,4aR,5S)-1,4a-Dimethyl-6-methylene-5-[2-(5-oxo-2,5-dihydro-furan-3-yl)-ethyl]-decahydro-naphthalene-1-carboxylic acid methyl ester] showed an IC50 of 6 µM.
With `C=C1CCC2[C@](C)(CCC[C@]2(C)C(=O)OC)[C@H]1CCc1ccoc1` (stereo partly drawn) [(1S,4aR,5S)-5-(2-Furan-3-yl-ethyl)-1,4a-dimethyl-6-methylene-decahydro-naphthalene-1-carboxylic acid methyl ester] the IC50 was > 1000 µM.
For `C=C1CCC2[C@](C)(CCC[C@]2(C)C(=O)OC)[C@H]1CC/C(=C/CO)CO` (stereo partly drawn) [(1S,4aR,5S)-5-((Z)-5-Hydroxy-3-hydroxymethyl-pent-3-enyl)-1,4a-dimethyl-6-methylene-decahydro-naphthalene-1-carboxylic acid methyl ester], the IC50 was 12 µM.
Molecule `COC(=O)[C@@]1(C)CCC[C@@]2(C)C1CC[C@H](CO)[C@@H]2CCC1=CCOC1=O` (stereo partly drawn) [(1S,4aR,5S,6S)-6-Hydroxymethyl-1,4a-dimethyl-5-[2-(2-oxo-2,5-dihydro-furan-3-yl)-ethyl]-decahydro-naphthalene-1-carboxylic acid methyl ester] has an IC50 of 1.6 µM.
In the case of `COC(=O)[C@@]1(C)CCC[C@@]2(C)C1CCC(=O)[C@@H]2CCC1=CCOC1=O` (stereo partly drawn) [(1S,4aS,5R)-1,4a-Dimethyl-6-oxo-5-[2-(2-oxo-2,5-dihydro-furan-3-yl)-ethyl]-decahydro-naphthalene-1-carboxylic acid methyl ester], the IC50 is reported as 0.26 µM.
With `COC(=O)[C@@]1(C)CCC[C@@]2(C)C1CCC(=O)[C@@H]2CCC1CCOC1=O` (stereo partly drawn) [(1S,4aS,5R)-1,4a-Dimethyl-6-oxo-5-[2-(2-oxo-tetrahydro-furan-3-yl)-ethyl]-decahydro-naphthalene-1-carboxylic acid methyl ester] the IC50 was 2.6 µM.
`COC(=O)[C@@]1(C)CCC[C@@]2(C)C1CC[C@](O)(CO)[C@@H]2CCC1=CCOC1=O` (stereo partly drawn) [(1S,4aS,5R,6R)-6-Hydroxy-6-hydroxymethyl-1,4a-dimethyl-5-[2-(2-oxo-2,5-dihydro-furan-3-yl)-ethyl]-decahydro-naphthalene-1-carboxylic acid methyl ester] was tested, and the IC50 was > 1000 µM.
With `COC(=O)[C@@]1(C)CCC[C@@]2(C)C1CC[C@H](O)[C@@H]2CCC1=CCOC1=O` (stereo partly drawn) [(1S,4aS,5R,6S)-6-Hydroxy-1,4a-dimethyl-5-[2-(2-oxo-2,5-dihydro-furan-3-yl)-ethyl]-decahydro-naphthalene-1-carboxylic acid methyl ester] the IC50 was 2 µM.
`C=C1CCC2[C@@](C)(CO)CCC[C@]2(C)[C@H]1CC/C(=C/CO)CO` (stereo partly drawn) [(Z)-2-[2-((1S,5S,8aR)-5-Hydroxymethyl-5,8a-dimethyl-2-methylene-decahydro-naphthalen-1-yl)-ethyl]-but-2-ene-1,4-diol] showed an IC50 of 21 µM.
`COC(=O)[C@@]1(C)CCC[C@@]2(C)C1CC[C@]1(CO1)[C@@H]2CCC1=CCOC1=O` (stereo partly specified) [methyl 5,8a-dimethyl-1-[2-(2-oxo-2,5-dihydro-3-furanyl)ethyl]spiro[perhydronaphthalene-2,2'-(dihydrooxirane)]-5-carboxylate] showed an IC50 of 1 µM.
